Results on seven molecules are retold here after PMC10400630, “Resensitizing multidrug-resistant Gram-negative bacteria to carbapenems and colistin using disulfiram” (Communications Biology, 2023).

A word on the pIC50: it is −log10 of the IC50, conventionally taken in molar units. A high value points to a small IC50.

Assay [1] deals with T1, E. coli B2.
T1 construct: B2
The assay can be described thus: microbe, parasite or virus in culture. The conditions noted are these: antibiotic alone, without DSF; for MIC: Escherichia coli, B2. Also on record: checkerboard broth microdilution, antibiotic alone, absorbance at 600 nm. From the text:
(§1) The fractional inhibitory concentration index (FICI) value was used to evaluate the drug interaction of two compounds (A and B) and calculated as the sum of FICIA and FICIB. […] To validate the potentiation, we further evaluated these combinations on several types of Gram-negative bacteria, including drug-sensitive strains, MCR-producing Enterobacterales and MBL-positive Enterobacteriaceae.

In the next assay the test system is NDM-positive E. coli C3. The assay can be described thus: microbe, parasite or virus in culture. Also on record: MIC of meropenem alone before serial passage (passage 0). The conditions noted are these: Escherichia coli, read-out: MICs of MEM, - DSF. On the procedure: To learn more about whether the addition of DSF contributes to preventing the development of antibiotic resistance, we carried out the serial passage assays in an NDM- or MCR-positive bacteria after exposure to meropenem/colistin, DSF and their combination. […] The mutation prevention index (MPI) was determined via the equation of MPC/MIC, which represents the opening of the mutant selection window (MSW, concentration range between MIC and MPC). When the MSW is narrower, drug-resistant strains are less likely to develop.

The target in the next assay is T2, NDM-5 (Escherichia coli, UniProt G3K399).
T2 construct: gene blaNDM-5
T2 sequence (G3K399 29-270 limits assumed): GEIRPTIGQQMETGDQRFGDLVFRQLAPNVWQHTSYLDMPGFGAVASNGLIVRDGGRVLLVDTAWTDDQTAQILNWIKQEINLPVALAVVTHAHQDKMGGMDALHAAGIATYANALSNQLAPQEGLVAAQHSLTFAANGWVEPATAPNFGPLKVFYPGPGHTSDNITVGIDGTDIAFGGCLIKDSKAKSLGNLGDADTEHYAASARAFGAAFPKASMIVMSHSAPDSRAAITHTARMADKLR
Briefly: purified NDM-[…]) enzyme inhibition assay, absorbance at […] nm. It counts as biochemical.

In a further assay the test system is T3, E. coli ATCC 25922.
T3 construct: ATCC 25922
The assay can be described thus: microbe, parasite or virus in culture. On the set-up: broth microdilution MIC of antibiotic alone (checkerboard assay). The conditions noted are these: Escherichia coli, ATCC25922; colistin alone.
Source text: as §1, with “Enterobacteriaceae. […] These NDM-positive Gram-negative pathogens carry blaNDM-1 or blaNDM-5 gene and are meropenem-resistant with MICs of 16-32 µg/mL. […] To explore the synergistic bactericidal activity of this combination, time-dependent killing curves for different MCR-positive Gram-negative bacteria were also determined.” for “Enterobacteriaceae.”

The next assay relates to T4, S. enterica ATCC 13076.
T4 construct: ATCC 13076
The assay can be described thus: microbe, parasite or virus in culture. Also on record: broth microdilution MIC of antibiotic alone (checkerboard assay). The conditions noted are these: Salmonella enterica, ATCC13076; colistin alone.
Source text: as §1, with “Enterobacteriaceae. […] These NDM-positive Gram-negative pathogens carry blaNDM-1 or blaNDM-5 gene and are meropenem-resistant with MICs of 16-32 µg/mL. […] To explore the synergistic bactericidal activity of this combination, time-dependent killing curves for different MCR-positive Gram-negative bacteria were also determined.” for “Enterobacteriaceae.”

The subject of another assay is T5, E. coli CP131 (mcr-3).
T5 construct: CP131 (mcr-3)
The assay can be described thus: microbe, parasite or virus in culture. On the set-up: broth microdilution MIC of antibiotic alone (checkerboard assay). The conditions noted are these: Escherichia coli; colistin alone.
Source text: as §1, with “Enterobacteriaceae. […] These NDM-positive Gram-negative pathogens carry blaNDM-1 or blaNDM-5 gene and are meropenem-resistant with MICs of 16-32 µg/mL. […] To explore the synergistic bactericidal activity of this combination, time-dependent killing curves for different MCR-positive Gram-negative bacteria were also determined.” for “Enterobacteriaceae.”

Assay [2] relates to T1, E. coli B2. Briefly: microbe, parasite or virus in culture. On the set-up: broth microdilution MIC of antibiotic alone (checkerboard assay). The conditions noted are these: Escherichia coli, antibiotic alone.
Source text: as §1, with “Enterobacteriaceae. […] These NDM-positive Gram-negative pathogens carry blaNDM-1 or blaNDM-5 gene and are meropenem-resistant with MICs of 16-32 µg/mL. […] To explore the synergistic bactericidal activity of this combination, time-dependent killing curves for different MCR-positive Gram-negative bacteria were also determined.” for “Enterobacteriaceae.”

Assay [3] has as its system T6, K. pneumoniae D120 (mcr-8).
T6 construct: D120 (mcr-8)
Briefly: microbe, parasite or virus in culture. On the set-up: broth microdilution MIC of antibiotic alone (checkerboard assay). The conditions noted are these: Klebsiella pneumoniae; colistin alone.
Source text: as §1, with “Enterobacteriaceae. […] These NDM-positive Gram-negative pathogens carry blaNDM-1 or blaNDM-5 gene and are meropenem-resistant with MICs of 16-32 µg/mL. […] To explore the synergistic bactericidal activity of this combination, time-dependent killing curves for different MCR-positive Gram-negative bacteria were also determined.” for “Enterobacteriaceae.”

The subject of the next assay is T7, E. coli G92 (mcr-1).
T7 construct: G92 (mcr-1)
The assay can be described thus: microbe, parasite or virus in culture. Also on record: broth microdilution MIC of antibiotic alone (checkerboard assay). The conditions noted are these: Escherichia coli; colistin alone.
Source text: as §1, with “Enterobacteriaceae. […] These NDM-positive Gram-negative pathogens carry blaNDM-1 or blaNDM-5 gene and are meropenem-resistant with MICs of 16-32 µg/mL. […] To explore the synergistic bactericidal activity of this combination, time-dependent killing curves for different MCR-positive Gram-negative bacteria were also determined.” for “Enterobacteriaceae.”

For another assay, the system named is T8, E. coli DH5α (PUC19).
T8 construct: DH5α (pUC19)
Briefly: microbe, parasite or virus in culture. Also on record: broth microdilution MIC of antibiotic alone (checkerboard assay). The conditions noted are these: Escherichia coli; colistin alone.
Source text: as §1, with “Enterobacteriaceae. […] These NDM-positive Gram-negative pathogens carry blaNDM-1 or blaNDM-5 gene and are meropenem-resistant with MICs of 16-32 µg/mL. […] To explore the synergistic bactericidal activity of this combination, time-dependent killing curves for different MCR-positive Gram-negative bacteria were also determined.” for “Enterobacteriaceae.”

Molecules are shown by their SMILES. pIC50: −log10 of the molar value. Positions of bridges follow the written chain, without caps; N, C: chain ends. Non-standard residues stand in square brackets, D forms with d. Residues, ends and D or L forms follow the SMILES beside them. *: point of attachment. Heptanoyl(5-Me) = CCC(C)CCCC(=O)*; Dab = NCC[C@H](N)C(=O)O

In the case of `CN(C)c1cc(NC(=O)CNC(C)(C)C)c(O)c2c1C[C@H]1C[C@H]3[C@H](N(C)C)C(O)=C(C(N)=O)C(=O)[C@@]3(O)C(O)=C1C2=O` [Tigecycline], in the assay with E. coli B2 [1], the MIC came to 0.5 µg/mL.
In the case of `C[C@@H](O)[C@H]1C(=O)N2C(C(=O)O)=C(S[C@@H]3CN[C@H](C(=O)N(C)C)C3)[C@H](C)[C@H]12` [Meropenem], the MIC worked out at 32 µg/mL in the assay on E. coli B2 [1] and 8 µg/mL with NDM-positive E. coli C3.
`CCN(CC)C(=S)SSC(=S)N(CC)CC` [disulfiram] showed a negative-log IC50 (pIC50) on NDM-5 of 4.02.
For `CO[C@H]1/C=C/O[C@@]2(C)Oc3c(C)c(O)c4c(O)c(c(/C=N/N5CCN(C)CC5)c(O)c4c3C2=O)NC(=O)/C(C)=C\C=C\[C@H](C)[C@H](O)[C@@H](C)[C@@H](O)[C@@H](C)[C@H](OC(C)=O)[C@@H]1C` [Rifampicin], the “MIC^a” value in the assay on E. coli B2 [1] turned out to be 128 µg/mL.
Consider `CN[C@H](CC(C)C)C(=O)N[C@H]1C(=O)N[C@@H](CC(N)=O)C(=O)N[C@H]2C(=O)N[C@H]3C(=O)N[C@H](C(=O)N[C@H](C(=O)O)c4cc(O)cc(O)c4-c4cc3ccc4O)[C@H](O)c3ccc(c(Cl)c3)Oc3cc2cc(c3O[C@@H]2O[C@H](CO)[C@@H](O)[C@H](O)[C@H]2O[C@H]2C[C@](C)(N)[C@H](O)[C@H](C)O2)Oc2ccc(cc2Cl)[C@H]1O` [Vancomycin], for which, in the assay on E. coli B2 [1], the MIC is 64 µg/mL.
Take `C[C@H]1c2cccc(O)c2C(=O)C2=C(O)[C@]3(O)C(=O)C(C(N)=O)=C(O)[C@@H](N(C)C)[C@@H]3[C@@H](O)[C@@H]21` [Doxycycline]: the MIC in the assay with E. coli B2 [1] was determined as 32 µg/mL.
Turning to `CCC(C)CCCC(=O)N[C@@H](CCN)C(=O)N[C@H](C(=O)N[C@@H](CCN)C(=O)N[C@H]1CCNC(=O)[C@H]([C@@H](C)O)NC(=O)[C@H](CCN)NC(=O)[C@H](CCN)NC(=O)[C@H](CC(C)C)NC(=O)[C@@H](CC(C)C)NC(=O)[C@H](CCN)NC1=O)[C@@H](C)O` (stereo partly drawn) [Colistin] ({Heptanoyl(5-Me)}-[Dab]T[Dab][Dab][Dab][dL]L[Dab][Dab]T; lactam 4-C), the MIC was determined as 0.5 µg/mL in the assay with E. coli ATCC 25922; 0.125 µg/mL in the assay with S. enterica ATCC 13076; 2 µg/mL with E. coli CP131 (mcr-3); 8 µg/mL with E. coli B2 [2]; 4 µg/mL in assay [3]; 4 µg/mL in the assay with E. coli G92 (mcr-1). The MIC with E. coli DH5α (PUC19) came out at 0.25 µg/mL.
